The target in this test is BRAF^V600E protein (Homo sapiens, UniProt P15056, V600E). Put plainly: HiBiT cellular BRAF V600E degradation assay. The test is classed as cell-based. To be noted: 24 h incubation; for DC50: A375.10 cells (HiBiT tag knocked in at N-terminal of BRAF V600E), concentration at which 50% of total cellular BRAF V600E is degraded; for Emax: read-out: HiBit 24 h Emax. In general terms: The HiBiT peptide binds its large partner to form an active luciferase.

The mark [1] stands for this setting: A375.10 cells, Emax = amount of residual protein remaining in the cell after compound treatment.

Chain of BRAF^V600E protein (P15056 whole entry V600E): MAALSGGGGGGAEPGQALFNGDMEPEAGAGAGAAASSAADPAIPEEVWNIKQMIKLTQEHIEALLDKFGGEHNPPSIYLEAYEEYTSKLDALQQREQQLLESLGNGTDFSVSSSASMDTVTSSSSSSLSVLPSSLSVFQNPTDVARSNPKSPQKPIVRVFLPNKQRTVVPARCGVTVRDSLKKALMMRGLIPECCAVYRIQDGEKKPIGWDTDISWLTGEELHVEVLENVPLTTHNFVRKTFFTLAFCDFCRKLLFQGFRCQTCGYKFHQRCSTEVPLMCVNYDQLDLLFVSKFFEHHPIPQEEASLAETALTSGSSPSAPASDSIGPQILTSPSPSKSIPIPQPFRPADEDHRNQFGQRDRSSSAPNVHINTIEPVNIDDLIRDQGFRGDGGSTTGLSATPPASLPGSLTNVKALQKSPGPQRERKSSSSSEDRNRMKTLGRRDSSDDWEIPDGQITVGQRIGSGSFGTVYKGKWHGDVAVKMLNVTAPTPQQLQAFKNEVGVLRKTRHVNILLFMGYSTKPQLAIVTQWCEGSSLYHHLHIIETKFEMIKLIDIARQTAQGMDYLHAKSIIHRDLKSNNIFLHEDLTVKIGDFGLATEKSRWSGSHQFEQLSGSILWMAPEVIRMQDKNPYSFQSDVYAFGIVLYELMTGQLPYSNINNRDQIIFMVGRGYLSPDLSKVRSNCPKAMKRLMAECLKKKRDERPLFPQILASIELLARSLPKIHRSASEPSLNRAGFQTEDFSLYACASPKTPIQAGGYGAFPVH

One may read the DC50 as the concentration giving 50% degradation. A word on the Emax: it is the size of the effect at its maximum, as opposed to the concentration needed. As to `CCN(C)S(=O)(=O)Nc1ccc(F)c(C(=O)c2c[nH]c3ncc(-c4ccc(CN5CCN(C(=O)CN6CCC(c7ccc(NC8CCC(=O)NC8=O)cc7)CC6)CC5)cc4)cc23)c1F` (stereo not shown) [Example A23, 5-[4-[[4-[2-[4-[4-[(2,6-Dioxopiperidin-3-yl)amino]phenyl]piperidin-1-yl]acetyl]piperazin-1-yl]methyl]phenyl]-3-[3-[[ethyl(methyl)sulfamoyl]amino]-2,6-difluorobenzoyl]-1H-pyrrolo[2,3-b]pyridine], the half-maximal degradation concentration (DC50) came to 0.019 µM. For the same molecule, under setting [1], the Emax amounted to 13%.
In turn, `CCN(C)S(=O)(=O)Nc1ccc(F)c(C(=O)c2c[nH]c3ncc(-c4ccc(CN5CCN(C(=O)CN6CCN(c7ccc(NC8CCC(=O)NC8=O)cc7)CC6)CC5)cc4)cc23)c1F.O=C(O)C(F)(F)F` (stereo not shown) [Example A24, 5-[4-[[4-[2-[4-[4-[(2,6-Dioxopiperidin-3-yl)amino]phenyl]piperazin-1-yl]acetyl]piperazin-1-yl]methyl]phenyl]-3-[3-[[ethyl(methyl)sulfamoyl]amino]-2,6-difluorobenzoyl]-1H-pyrrolo[2,3-b]pyridine; 2,2,2-trifluoroacetic acid] yielded a DC50 of 0.03 µM. For the same molecule, under setting [1], the “HiBit 24 h Emax” value was found to be 13%.
Turning to `CCN(C)S(=O)(=O)Nc1ccc(F)c(C(=O)c2c[nH]c3ncc(-c4ccc(CN5CCN(C(=O)CN6CCN(c7cccc(NC8CCC(=O)NC8=O)c7)CC6)CC5)cc4)cc23)c1F` (stereo not shown) [Example A25, 5-[4-[[4-[2-[4-[3-[(2,6-Dioxopiperidin-3-yl)amino]phenyl]piperazin-1-yl]acetyl]piperazin-1-yl]methyl]phenyl]-3-[3-[[ethyl(methyl)sulfamoyl]amino]-2,6-difluorobenzoyl]-1H-pyrrolo[2,3-b]pyridine; 2,2,2-trifluoroacetic acid], the DC50 was 0.101 µM. Moreover, the maximum response (Emax) under setting [1] stood at 18%.
Turning to `CCN(C)S(=O)(=O)Nc1ccc(F)c(C(=O)c2c[nH]c3ncc(-c4ccc(CN5CCN(C(=O)CCCN6CCC(c7ccc(NC8CCC(=O)NC8=O)cc7)CC6)CC5)cc4)cc23)c1F` (stereo not shown) [Example A26, 5-[4-[[4-[4-[4-[4-[(2,6-Dioxopiperidin-3-yl)amino]phenyl]piperidin-1-yl]butanoyl]piperazin-1-yl]methyl]phenyl]-3-[3-[[ethyl(methyl)sulfamoyl]amino]-2,6-difluorobenzoyl]-1H-pyrrolo[2,3-b]pyridine; 2,2,2-trifluoroacetic acid], the DC50 stood at 0.166 µM. Moreover, the maximal effect (Emax) under setting [1] came out at 19%.
The molecule `O=C1CCC(Oc2ccc(C3CCN(C(=O)NC4CCN(Cc5ccc(-c6cnc7[nH]cc(C(=O)c8c(F)ccc(NS(=O)(=O)N9CCCC9)c8F)c7c6)cc5)CC4)CC3)cc2)C(=O)N1` (stereo not shown) [Example A27, N-[1-[[4-[3-[2,6-Difluoro-3-(pyrrolidin-1-ylsulfonylamino)benzoyl]-1H-pyrrolo[2,3-b]pyridin-5-yl]phenyl]methyl]piperidin-4-yl]-4-[4-(2,6-dioxopiperidin-3-yl)oxyphenyl]piperidine-1-carboxamide; formic acid] returned a half-maximal degradation concentration (DC50) of 0.104 µM. The Emax under setting [1] was found to be 30%.
In the same order, the values of `CCC(C)S(=O)(=O)Nc1ccc(F)c(C(=O)c2c[nH]c3ncc(-c4ccc(N5CCN(C(=O)CN6CCC(c7ccc(OC8CCC(=O)NC8=O)cc7)CC6)CC5)nc4)cc23)c1F` (stereo not shown) [Example A28, N-[3-[5-[6-[4-[2-[4-[4-(2,6-Dioxopiperidin-3-yl)oxyphenyl]piperidin-1-yl]acetyl]piperazin-1-yl]pyridin-3-yl]-1H-pyrrolo[2,3-b]pyridine-3-carbonyl]-2,4-difluorophenyl]butane-2-sulfonamide] are 0.012 µM and 14%.
In the case of `CCC(C)S(=O)(=O)Nc1ccc(F)c(C(=O)c2c[nH]c3ncc(-c4ccc(N5CCN(C(=O)CN6CCC(c7ccc(NC8CCC(=O)NC8=O)cc7)CC6)CC5)nc4)cc23)c1F` (stereo not shown) [Example A29, N-[3-[5-[6-[4-[2-[4-[4-[(2,6-Dioxopiperidin-3-yl)amino]phenyl]piperidin-1-yl]acetyl]piperazin-1-yl]pyridin-3-yl]-1H-pyrrolo[2,3-b]pyridine-3-carbonyl]-2,4-difluorophenyl]butane-2-sulfonamide], it took 0.00305 µM to reach half-maximal degradation (DC50). Under setting [1], the Emax was determined as 10.9%.
For `CCN(C)S(=O)(=O)Nc1ccc(F)c(C(=O)c2c[nH]c3ncc(-c4ccc(OC5CCN(C(=O)CN6CCC(c7ccc(OC8CCC(=O)NC8=O)cc7)CC6)CC5)cc4)cc23)c1F` (stereo not shown) [Example A30, 5-[4-[1-[2-[4-[4-(2,6-Dioxopiperidin-3-yl)oxyphenyl]piperidin-1-yl]acetyl]piperidin-4-yl]oxyphenyl]-3-[3-[[ethyl(methyl)sulfamoyl]amino]-2,6-difluorobenzoyl]-1H-pyrrolo[2,3-b]pyridine], the DC50 was 0.053 µM. In addition, under setting [1], the Emax was 13%.
`CCN(C)S(=O)(=O)Nc1ccc(F)c(C(=O)c2c[nH]c3ncc(-c4ccc(OC5CCN(C(=O)CN6CCC(c7ccc(NC8CCC(=O)NC8=O)cc7)CC6)CC5)cc4)cc23)c1F` (stereo not shown) [Example A31, 5-[4-[1-[2-[4-[4-[(2,6-dioxopiperidin-3-yl)amino]phenyl]piperidin-1-yl]acetyl]piperidin-4-yl]oxyphenyl]-3-[3-[[ethyl(methyl)sulfamoyl]amino]-2,6-difluorobenzoyl]-1H-pyrrolo[2,3-b]pyridine] registered a half-maximal degradation concentration (DC50) of 0.015 µM. Under setting [1], the Emax was determined as 12%.
For the molecule `O=C1CCC(Oc2ccc(C3CCN(CC(=O)N4CCN(c5ccc(-c6cnc7[nH]cc(C(=O)c8c(F)ccc(NS(=O)(=O)C9CCCCC9)c8F)c7c6)cn5)CC4)CC3)cc2)C(=O)N1` (stereo not shown) [Example A32, N-[3-[5-[6-[4-[2-[4-[4-(2,6-Dioxopiperidin-3-yl)oxyphenyl]piperidin-1-yl]acetyl]piperazin-1-yl]pyridin-3-yl]-1H-pyrrolo[2,3-b]pyridine-3-carbonyl]-2,4-difluorophenyl]cyclohexanesulfonamide], half-maximal degradation (DC50) was put at 0.039 µM. For the same molecule, the Emax under setting [1] is 15%.
Consider `O=C1CCC(Nc2ccc(C3CCN(CC(=O)N4CCN(c5ccc(-c6cnc7[nH]cc(C(=O)c8c(F)ccc(NS(=O)(=O)C9CCCCC9)c8F)c7c6)cn5)CC4)CC3)cc2)C(=O)N1` (stereo not shown) [Example A33, N-[3-[5-[6-[4-[2-[4-[4-[(2,6-Dioxopiperidin-3-yl)amino]phenyl]piperidin-1-yl]acetyl]piperazin-1-yl]pyridin-3-yl]-1H-pyrrolo[2,3-b]pyridine-3-carbonyl]-2,4-difluorophenyl]cyclohexanesulfonamide], for which the 50% degradation concentration (DC50) came out at 0.034 µM. Besides, the Emax under setting [1] stood at 13%.
Molecule `CCN(C)S(=O)(=O)Nc1ccc(F)c(C(=O)c2c[nH]c3ncc(-c4cnc(N5CCC(NC(=O)N6CCC(c7ccc(NC8CCC(=O)NC8=O)cc7)CC6)CC5)nc4)cc23)c1F` (stereo not shown) [Example A34, 4-[4-[(2,6-Dioxopiperidin-3-yl)amino]phenyl]-N-[1-[5-[3-[3-[[ethyl(methyl)sulfamoyl]amino]-2,6-difluorobenzoyl]-1H-pyrrolo[2,3-b]pyridin-5-yl]pyrimidin-2-yl]piperidin-4-yl]piperidine-1-carboxamide;formic acid] came in with a half-maximal degradation concentration (DC50) of 0.079 µM. In addition, the Emax under setting [1] came to 25%.
`CCN(C)S(=O)(=O)Nc1ccc(F)c(C(=O)c2c[nH]c3ncc(-c4ccc(N5CCN(C(=O)CCN6CCC(c7ccc(OC8CCC(=O)NC8=O)cc7)CC6)CC5)nc4)cc23)c1F` (stereo not shown) [Example A35, 5-[6-[4-[3-[4-[4-(2,6-Dioxopiperidin-3-yl)oxyphenyl]piperidin-1-yl]propanoyl]piperazin-1-yl]pyridin-3-yl]-3-[3-[[ethyl(methyl)sulfamoyl]amino]-2,6-difluorobenzoyl]-1H-pyrrolo[2,3-b]pyridine] returned a DC50 of 0.054 µM. Besides, the Emax under setting [1] is 21%.
The molecule `CCN(C)S(=O)(=O)Nc1ccc(F)c(C(=O)c2c[nH]c3ncc(-c4ccc(N5CCN(C(=O)CN6CCC(c7ccc(NC8CCC(=O)NC8=O)cc7)CC6)CC5)cc4)cc23)c1F` (stereo not shown) [Example A36, 5-[4-[4-[2-[4-[4-[(2,6-Dioxopiperidin-3-yl)amino]phenyl]piperidin-1-yl]acetyl]piperazin-1-yl]phenyl]-3-[3-[[ethyl(methyl)sulfamoyl]amino]-2,6-difluorobenzoyl]-1H-pyrrolo[2,3-b]pyridine] yielded a half-maximal degradation concentration (DC50) of 0.003 µM. Besides, the Emax under setting [1] came to 10%.
In the same order, the values of `CCN(C)S(=O)(=O)Nc1ccc(F)c(C(=O)c2c[nH]c3ncc(-c4ccc(N5CCN(C(=O)CN6Cc7ccc(NC8CCC(=O)NC8=O)cc7C6)CC5)nc4)cc23)c1F` (stereo not shown) [Example A37, 5-[6-[4-[2-[5-[(2,6-Dioxopiperidin-3-yl)amino]-1,3-dihydroisoindol-2-yl]acetyl]piperazin-1-yl]pyridin-3-yl]-3-[3-[[ethyl(methyl)sulfamoyl]amino]-2,6-difluorobenzoyl]-1H-pyrrolo[2,3-b]pyridine] are 0.0146 µM and 20.6%.
For `CCN(C)S(=O)(=O)Nc1ccc(F)c(C(=O)c2c[nH]c3ncc(-c4ccc(CN5CCN(C(=O)CN6Cc7ccc(NC8CCC(=O)NC8=O)cc7C6)CC5)nc4)cc23)c1F` (stereo not shown) [Example A38, 5-[6-[[4-[2-[5-[(2,6-Dioxopiperidin-3-yl)amino]-1,3-dihydroisoindol-2-yl]acetyl]piperazin-1-yl]methyl]pyridin-3-yl]-3-[3-[[ethyl(methyl)sulfamoyl]amino]-2,6-difluorobenzoyl]-1H-pyrrolo[2,3-b]pyridine], it took 0.047 µM to reach half-maximal degradation (DC50). For the same molecule, the maximal effect (Emax) under setting [1] was determined as 20%.
`CCN(C)S(=O)(=O)Nc1ccc(F)c(C(=O)c2c[nH]c3ncc(-c4ccc(N5CCN(C(=O)CN(C)C(=O)Cc6ccc(NC7CCC(=O)NC7=O)cc6)CC5)nc4)cc23)c1F` (stereo not shown) [Example A39, 2-[4-[(2,6-dioxopiperidin-3-yl)amino]phenyl]-N-[2-[4-[5-[3-[3-[[ethyl(methyl)sulfamoyl]amino]-2,6-difluorobenzoyl]-1H-pyrrolo[2,3-b]pyridin-5-yl]pyridin-2-yl]piperazin-1-yl]-2-oxoethyl]-N-methylacetamide] returned a DC50 of 0.035 µM. For the same molecule, the Emax under setting [1] came out at 18%.

For the origin of these results see patent US12559492B2, “BRAF degraders” (C4 Therapeutics, Inc., priority 2020, dated 2026).
